Data: a compilation of properties of binary mixtures (doi:10.1016/j.jct.2017.05.012)

Test: xn = mol fraction of the nth substance listed
Details: 101 kPa

CCCCCCCCOS(=O)(=O)[O-].CC[n+]1ccn(C)c1 + O
Details	electrical conductivity [S/m]	viscosity [mPa·s]
268.15 K, x2 = 0.7822	0.277	–
268.15 K, x2 = 0.8104	0.331	–
268.15 K, x2 = 0.8384	0.406	–
273.15 K, x2 = 0.7822	0.355	–
273.15 K, x2 = 0.8104	0.417	–
273.15 K, x2 = 0.8384	0.529	–
278.15 K, x2 = 0.7822	0.447	–
278.15 K, x2 = 0.8104	0.522	–
278.15 K, x2 = 0.8384	0.653	–
283.15 K, x2 = 0.7822	0.552	–
283.15 K, x2 = 0.8104	0.642	–
283.15 K, x2 = 0.8237	0.677	–
283.15 K, x2 = 0.8384	0.799	–
288.15 K, x2 = 0.8104	0.772	–
288.15 K, x2 = 0.8237	0.819	–
288.15 K, x2 = 0.8384	0.956	–
290.15 K, x2 = 0.8384	1.02	–
291.15 K, x2 = 0.8237	0.91	–
291.15 K, x2 = 0.8384	1.05	–
292.15 K, x2 = 0.8104	0.89	–
293.15 K, x2 = 0.7822	0.801	–
293.15 K, x2 = 0.8104	0.921	–
293.15 K, x2 = 0.8237	0.971	–
293.15 K, x2 = 0.8384	1.13	–
294.15 K, x2 = 0.8104	0.951	–
296.15 K, x2 = 0.8237	–	73.9
297.15 K, x2 = 0.7822	–	76.7
297.15 K, x2 = 0.8384	–	62.9
298.15 K, x2 = 0.7822	0.949	72.6
298.15 K, x2 = 0.8104	1.07	67.2
298.15 K, x2 = 0.8384	1.31	59.6
299.15 K, x2 = 0.8237	–	60.2
300.15 K, x2 = 0.8237	–	57.1
303.15 K, x2 = 0.7822	1.11	55.9
303.15 K, x2 = 0.8104	1.25	51.7
308.15 K, x2 = 0.7822	–	43.7
308.15 K, x2 = 0.8104	–	40.4
308.15 K, x2 = 0.8237	–	38.33
308.15 K, x2 = 0.8384	–	36.02
313.15 K, x2 = 0.7822	1.47	34.66
313.15 K, x2 = 0.8237	1.73	–
313.15 K, x2 = 0.8384	1.98	28.64
318.15 K, x2 = 0.8237	–	24.55
323.15 K, x2 = 0.7822	1.89	22.8
323.15 K, x2 = 0.8104	2.09	21.03
323.15 K, x2 = 0.8384	2.55	18.8
328.15 K, x2 = 0.8237	–	16.51
333.15 K, x2 = 0.8104	2.66	14.42
333.15 K, x2 = 0.8384	3.13	12.91
338.15 K, x2 = 0.8237	–	11.57
343.15 K, x2 = 0.8104	3.17	10.28
343.15 K, x2 = 0.8237	3.28	–
343.15 K, x2 = 0.8384	3.76	9.26
353.15 K, x2 = 0.8237	3.77	–
358.15 K, x2 = 0.8237	3.99	–
363.15 K, x2 = 0.8237	4.35	–
